Here are results for five compounds from patent US20150023920A1, “NOVEL COMPOSITIONS AND METHODS FOR PREVENTING OR TREATING CANCER METASTASIS” (Drexel University, priority 2012, published 2015).

One data set deals with IL-1β in PC3-ML cells. Put plainly: IL-1β silencing by stable shRNA transduction in PC3-ML cells (Western blot, ELISA). The conditions noted are these: stable transduction of shRNA. Type of data set: cell-based, human. As to the method: Mission TRC lentiviral shRNA vectors (Sigma-Aldrich) were used to knock down IL1-β. The following shRNA sequence was used:
Lentiviral particles were used to infect […] cell cultures, overnight in the presence of 8 μg/ml polybrene (Millipore). The successful infected cells were selected for the ability to proliferate in media containing G418 ([…]). The resulting cells were characterized by Western blot analysis using an antibody against IL1β.
(§1) Cell lysates were obtained and SDS-PAGE and Western Blot analysis performed as previously described, with few modifications. Membranes were blotted with antibodies targeting PDGFRα, PDGFRβ, IL1-β (SC-7884, Santa Cruz, Dallas, Tex.), Actin (A-2066, Sigma-Aldrich, St. Louis, Mo.), COX-2 (ab15191, AbCam, Cambridge, UK) Elafin (SC-20637, Santa Cruz) and GAPDH (DI6H11, Cell Signaling Technology, Beverly, Mass.). Primary antibody binding was detected using an HRP-conjugated secondary antibody (Pierce). Chemiluminescence signals were obtained using SuperSignal West Femto reagents (Pierce) and detected with the Fluorochem 8900 imaging system and relative software (Alpha Innotech).
The concentrations of IL-1β and CXCL6 were measured by ELISA as described in the manufacturers' protocols. […] The supernatant was then collected and the protein concentration was measured using Quantikine kits (R&D systems).
On the technique in general: Immunoblotting shows a protein as a band on a membrane.

For data set [1], the system named is PC3-ML bone-metastatic prostate cancer cells. Put plainly: Animal model of metastasis, intracardiac inoculation of cancer cells. The class given is in vivo, mouse. The conditions noted are these: mice inoculated via systemic arterial circulation with shRNA-transduced PC3-ML cells, four weeks post-inoculation. Here is the method: Five week-old male immunocompromised mice (CBI 7-SCRF) were obtained from Taconic and housed in a germ-free barrier. At six weeks of age, mice were anesthetized with 100 mg/kg ketamine and 20 mg/kg xylazine and successively inoculated in the left cardiac ventricle with cancer cells (5×10^4 in 100 μl of serum-free DMEM/F12). Cell inoculation was performed using a 30-gauge needle connected to a 1 ml syringe. The delivery of the cell suspension in the systemic blood circulation was validated by the co-injection of blue-fluorescent 10 μm polystyrene beads (Invitrogen-Molecular Probes). Animals were randomly assigned to different experimental groups and sacrificed at specified time points following inoculation. Organs were harvested and prepared as described below and tissue sections inspected blindly for metastatic lesions. The homogeneous and numerically-consistent distribution of the beads in adrenal glands and lungs collected at necropsy and inspected by fluorescence microscopy were used as discrimination criteria for the inclusion of animals in the studies. […]
Bright-field and fluorescent images of skeletal metastases were acquired using an Olympus stereomicroscope coupled to an Olympus DT70 CCD color camera. Digital images were analyzed with ImageJ software and calibrated for measurement by obtaining a pixel to millimeter ratio. […]

The subject of data set [2] is production of interleukin-1β. Particulars: cited from earlier work.
Data set [3] deals with COX-2 expression in human bone Mesenchymal Stem Cells (MSCs). Put plainly: COX-2 expression in human MSCs exposed to PC3-ML conditioned medium (Western blot). Type of data set: cell-based. The conditions noted are these: Anakinra 10 μg/ml pre-treatment 30 minutes; MSCs exposed 48 hours to PC3-ML conditioned medium. Here is the method: Bone marrow-derived Human Mesenchymal Stem cells (MSCs) (Lonza, Allendale, N.J.) were used between passage 5 and 8 and cultured in MSC growth medium (α-MEM (Invitrogen) supplemented with 10% FBS, 1 ng/ml bFGF (R&D Systems, Minneapolis, Minn.), and 0.1% gentamicin).
as §1
Conditioned media were obtained according to Li et al., 2012, Cancer Disc. 2:840-55. In brief, 7.5×10^5 PC3-ML cells were plated in 15 ml of DMEM supplemented with 10% fetal bovine serum and 0.1% gentamicin and cultured for five days. The medium from each dish was then collected and centrifuged at 2000 rpm for 10 minutes and then used fresh as described below. […]

For data set [4], the system named is other members of the interleukin-1 family, including interleukin-1 alpha. Particulars: cited from earlier work.
In data set [5] the test system is mouse models of acute gout. Particulars: in vivo; cited from earlier work.

“Also recorded” adds a separate entry of the source.

For the compound “5′-CGGCCAGGATATAACTGACTT-3′ (listed as DNA, chemistry not given here) [shRNA, Mission TRC lentiviral shRNA used to knock down IL1-β in PC3-ML cells]”, in the data set on IL-1β in PC3-ML cells, the “IL-1β expression in PC3-ML cells after silencing” value was “expression levels lower than PC3-N cells”. Further, in data set [1], the “reduction of size of bone-metastatic tumors” value is “approximately 70%”.

`CSc1ccc(-c2nn(Cc3ccccc3)c(=O)cc2-c2ccc(Cl)cc2)cc1` [K-832, 2-benzyl-5-(4-chlorophenyl)-6-[4-(methylthio)phenyl]-2H-pyridazin-3-one]: the “inhibitory activity against production of interleukin-1β” value in data set [2] is reported as “high inhibitory activity”.

On to “Anakinra: recombinant, non-glycosylated version of human IL-1 receptor antagonist prepared from genetically modified E. coli”, for which, in data set [3], the “Increase in COX-2 expression in MSCs induced by PC3-ML conditioned medium” value was “completely prevent; also recorded: inhibited”.

In the case of “Canakinumab: human monoclonal antibody targeted at interleukin-1 beta”, in data set [4], the “cross-reactivity with other members of the interleukin-1 family, including interleukin-1 alpha” value is reported as “no cross-reactivity”.

In the case of “XOMA-052: potent anti-IL-1β humanized neutralizing antibody”, the “activity in mouse models of acute gout” value in data set [5] was “active”.
